What was measured:
Format in all cases: in vivo
[1] = test system: ryegrass, Italian (Italian ryegrass, Lolium multiflorum); test: Test A preemergence; settings: Preemergence; for Plant response rating, Ryegrass, Italian: 125 g ai/ha, visual injury after approximately 10 d, 0 to 100 scale where 0 is no effect and 100 is complete control; for Ryegrass, Italian plant response rating (0 to 100 scale, 0 is no effect, 100 is complete control): 500 g ai/ha, visual injury approx. 10 d
Procedure, shortened: (§1)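 Visual injury, scored on a 0–100 scale relative to untreated controls, was recorded about 10 d after application. Treatments were a preemergence soil spray over planted seeds or a postemergence spray on plants at the one- to two-leaf stage, 2 to 10 cm tall, all in loam soil–sand blend in the greenhouse.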

[2] = test system: pigweed (Amaranthus retroflexus); test: Test A preemergence; settings: Preemergence; for Plant response rating, Pigweed: 125 g ai/ha, visual injury after approximately 10 d, 0 to 100 scale where 0 is no effect and 100 is complete control; for Pigweed plant response rating (0 to 100 scale, 0 is no effect, 100 is complete control): 500 g ai/ha, visual injury approx. 10 d
[3] = test system: barnyardgrass (Echinochloa crus-galli); test: Test A preemergence; settings: Preemergence; for Plant response rating, Barnyardgrass: 125 g ai/ha, visual injury after approximately 10 d, 0 to 100 scale where 0 is no effect and 100 is complete control; for Barnyardgrass plant response rating (0 to 100 scale, 0 is no effect, 100 is complete control): 500 g ai/ha, visual injury approx. 10 d
Procedure, shortened: as §1

[4] = test system: giant foxtail (Setaria faberii); test: Test A preemergence; settings: Preemergence; for Plant response rating, Foxtail, Giant: 125 g ai/ha, visual injury after approximately 10 d, 0 to 100 scale where 0 is no effect and 100 is complete control; for Foxtail, Giant plant response rating (0 to 100 scale, 0 is no effect, 100 is complete control): 500 g ai/ha, visual injury approx. 10 d
Procedure, shortened: as §1

Kochia (Kochia scoparia) [5] = test: Test A preemergence; settings: Preemergence; for Plant response rating, Kochia: 125 g ai/ha, visual injury after approximately 10 d, 0 to 100 scale where 0 is no effect and 100 is complete control; for Kochia plant response rating (0 to 100 scale, 0 is no effect, 100 is complete control): 500 g ai/ha, visual injury approx. 10 d
Procedure, shortened: as §1

[6] = test system: ragweed (common ragweed, Ambrosia elatior); test: Test A preemergence; settings: Preemergence; for Plant response rating, Ragweed: 125 g ai/ha, visual injury after approximately 10 d, 0 to 100 scale where 0 is no effect and 100 is complete control; for Ragweed plant response rating (0 to 100 scale, 0 is no effect, 100 is complete control): 500 g ai/ha, visual injury approx. 10 d
Procedure, shortened: as §1

rice (Oryra sativa) = test: Test B flooded paddy test; settings: Flood, 250 g ai/ha; 0 to 100 scale where 0 is no effect and 100 is complete control; 13 to 15 d
Procedure, shortened: (§2)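 Response scored visually against untreated controls, 0 = no effect and 100 = complete control, 13–15 d after treatment in the greenhouse. Compounds added to paddy water held 3 cm above soil surface. Treatment given at 2-leaf stage.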

[7] = test system: barnyardgrass (Echinochloa crus-galli); test: Test B flooded paddy test; settings: Flood, 250 g ai/ha; 0 to 100 scale where 0 is no effect and 100 is complete control; 13 to 15 d
Procedure, shortened: as §2

[8] = test system: sedge, umbrella (small-flower umbrella sedge, Cyperus difformis); test: Test B flooded paddy test; settings: Flood, 250 g ai/ha; 0 to 100 scale where 0 is no effect and 100 is complete control; 13 to 15 d
Procedure, shortened: as §2

[9] = test system: ducksalad (Heteranthera limosa); test: Test B flooded paddy test; settings: Flood, 250 g ai/ha; 0 to 100 scale where 0 is no effect and 100 is complete control; 13 to 15 d
Procedure, shortened: as §2

[10] = test system: blackgrass (Alopecurus myosuroides); test: Test A postemergence; settings: for Blackgrass plant response rating: 125 g ai/ha, postemergence, visual injury rating on 0 to 100 scale (0 no effect, 100 complete control), approx. 10 d; for Plant response rating, Blackgrass: Postemergence, 500 g ai/ha, 0 to 100 scale where 0 is no effect and 100 is complete control
Procedure, shortened: as §1

[11] = test system: ryegrass, Italian (Italian ryegrass, Lolium multiflorum); test: Test A postemergence; settings: for Ryegrass, Italian plant response rating: 125 g ai/ha, postemergence, visual injury rating on 0 to 100 scale (0 no effect, 100 complete control), approx. 10 d; for Plant response rating, Ryegrass, Italian: Postemergence, 500 g ai/ha, 0 to 100 scale where 0 is no effect and 100 is complete control
Procedure, shortened: as §1

corn (Zea mays) = test: Test A postemergence; settings: for Corn plant response rating: 125 g ai/ha, postemergence, visual injury rating on 0 to 100 scale (0 no effect, 100 complete control), approx. 10 d; for Plant response rating, Corn: Postemergence, 500 g ai/ha, 0 to 100 scale where 0 is no effect and 100 is complete control
Procedure, shortened: as §1

[12] = test system: Galium (catchweed bedstraw, Galium aparine); test: Test A postemergence; settings: for Galium plant response rating: 125 g ai/ha, postemergence, visual injury rating on 0 to 100 scale (0 no effect, 100 complete control), approx. 10 d; for Plant response rating, Galium: Postemergence, 500 g ai/ha, 0 to 100 scale where 0 is no effect and 100 is complete control
Procedure, shortened: as §1

[13] = test system: wheat (Triticum aestivum); test: Test A postemergence; settings: for Wheat plant response rating: 125 g ai/ha, postemergence, visual injury rating on 0 to 100 scale (0 no effect, 100 complete control), approx. 10 d; for Plant response rating, Wheat: Postemergence, 500 g ai/ha, 0 to 100 scale where 0 is no effect and 100 is complete control
Procedure, shortened: as §1

[14] = test system: pigweed (Amaranthus retroflexus); test: Test A postemergence; settings: for Pigweed plant response rating: 125 g ai/ha, postemergence, visual injury rating on 0 to 100 scale (0 no effect, 100 complete control), approx. 10 d; for Plant response rating, Pigweed: Postemergence, 500 g ai/ha, 0 to 100 scale where 0 is no effect and 100 is complete control
Procedure, shortened: as §1

[15] = test system: barnyardgrass (Echinochloa crus-galli); test: Test A postemergence; settings: for Barnyardgrass plant response rating: 125 g ai/ha, postemergence, visual injury rating on 0 to 100 scale (0 no effect, 100 complete control), approx. 10 d; for Plant response rating, Barnyardgrass: Postemergence, 500 g ai/ha, 0 to 100 scale where 0 is no effect and 100 is complete control
Procedure, shortened: as §1

[16] = test system: giant foxtail (Setaria faberii); test: Test A postemergence; settings: for Foxtail, Giant plant response rating: 125 g ai/ha, postemergence, visual injury rating on 0 to 100 scale (0 no effect, 100 complete control), approx. 10 d; for Plant response rating, Foxtail, Giant: Postemergence, 500 g ai/ha, 0 to 100 scale where 0 is no effect and 100 is complete control
Procedure, shortened: as §1

Kochia (Kochia scoparia) [17] = test: Test A postemergence; settings: for Kochia plant response rating: 125 g ai/ha, postemergence, visual injury rating on 0 to 100 scale (0 no effect, 100 complete control), approx. 10 d; for Plant response rating, Kochia: Postemergence, 500 g ai/ha, 0 to 100 scale where 0 is no effect and 100 is complete control
Procedure, shortened: as §1

[18] = test system: ragweed (common ragweed, Ambrosia elatior); test: Test A postemergence; settings: for Ragweed plant response rating: 125 g ai/ha, postemergence, visual injury rating on 0 to 100 scale (0 no effect, 100 complete control), approx. 10 d; for Plant response rating, Ragweed: Postemergence, 500 g ai/ha, 0 to 100 scale where 0 is no effect and 100 is complete control
Procedure, shortened: as §1

SMILES	Plant response rating, Ryegrass, Italian [1]	Ryegrass, Italian plant response rating (0 to 100 scale, 0 is no effect, 100 is complete control) [1]	Plant response rating, Pigweed [2]	Pigweed plant response rating (0 to 100 scale, 0 is no effect, 100 is complete control) [2]	Plant response rating, Barnyardgrass [3]	Barnyardgrass plant response rating (0 to 100 scale, 0 is no effect, 100 is complete control) [3]	Plant response rating, Foxtail, Giant [4]	Foxtail, Giant plant response rating (0 to 100 scale, 0 is no effect, 100 is complete control) [4]	Plant response rating, Kochia (Kochia (Kochia scoparia) [5])	Kochia plant response rating (0 to 100 scale, 0 is no effect, 100 is complete control) (Kochia (Kochia scoparia) [5])	Plant response rating, Ragweed [6]	Ragweed plant response rating (0 to 100 scale, 0 is no effect, 100 is complete control) [6]	Plant response rating, Rice (rice (Oryra sativa))	Plant response rating, Barnyardgrass [7]	Plant response rating, Sedge, Umbrella [8]	Plant response rating, Ducksalad [9]	Blackgrass plant response rating [10]	Plant response rating, Blackgrass [10]	Ryegrass, Italian plant response rating [11]	Plant response rating, Ryegrass, Italian [11]	further results
Cc1ccc(C2CNC(=O)C2C(=O)Nc2ccccc2F)c(F)c1 (racemic) [Compound 509]	0	0	0	0	60	90	40	70	0	0	0	0	0	0	0	50	0	20	0	0	Corn plant response rating (corn (Zea mays)): 0; Plant response rating, Corn (corn (Zea mays)): 0; Galium plant response rating [12]: 0; Plant response rating, Galium [12]: 40; Wheat plant response rating [13]: 0; Plant response rating, Wheat [13]: 0; Pigweed plant response rating [14]: 0; Plant response rating, Pigweed [14]: 0; Barnyardgrass plant response rating [15]: 60; Plant response rating, Barnyardgrass [15]: 90; Foxtail, Giant plant response rating [16]: 0; Plant response rating, Foxtail, Giant [16]: 40; Kochia plant response rating (Kochia (Kochia scoparia) [17]): 0; Plant response rating, Kochia (Kochia (Kochia scoparia) [17]): 20; Ragweed plant response rating [18]: 0; Plant response rating, Ragweed [18]: 0
O=C1NCC(c2ccnc(C(F)(F)F)c2)C1C(=O)Nc1cccc(F)c1F (racemic) [Compound 514]	20	60	0	40	90	90	90	90	0	50	0	30	20	50	0	100	20	50	20	40	Corn plant response rating (corn (Zea mays)): 30; Plant response rating, Corn (corn (Zea mays)): 80; Galium plant response rating [12]: 40; Plant response rating, Galium [12]: 50; Wheat plant response rating [13]: 30; Plant response rating, Wheat [13]: 40; Pigweed plant response rating [14]: 0; Plant response rating, Pigweed [14]: 30; Barnyardgrass plant response rating [15]: 80; Plant response rating, Barnyardgrass [15]: 90; Foxtail, Giant plant response rating [16]: 70; Plant response rating, Foxtail, Giant [16]: 90; Kochia plant response rating (Kochia (Kochia scoparia) [17]): 30; Plant response rating, Kochia (Kochia (Kochia scoparia) [17]): 50; Ragweed plant response rating [18]: 0; Plant response rating, Ragweed [18]: 20

Source: US12077503B2, “Substituted cyclic amides and their use as herbicides” (FMC CORPORATION, priority 2015, dated 2024)
